The target in this test is T1, human GPR119 (Homo sapiens, UniProt Q8TDV5).
T1 construct: expression vector for human GPR119 cDNA (Acc. No. NP_848566); expressed in transfected cells
T1 sequence (Q8TDV5 1-335): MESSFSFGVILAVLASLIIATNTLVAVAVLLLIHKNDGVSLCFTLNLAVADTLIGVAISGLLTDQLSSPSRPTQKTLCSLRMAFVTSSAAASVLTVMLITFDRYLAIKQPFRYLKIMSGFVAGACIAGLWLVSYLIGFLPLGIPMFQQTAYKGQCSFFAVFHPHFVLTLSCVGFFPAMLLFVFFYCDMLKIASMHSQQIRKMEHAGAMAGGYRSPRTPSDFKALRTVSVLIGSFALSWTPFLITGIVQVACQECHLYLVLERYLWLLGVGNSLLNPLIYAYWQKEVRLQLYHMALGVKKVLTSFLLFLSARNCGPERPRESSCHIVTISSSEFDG
Briefly: AlphaScreen cAMP assay in MIN6 cells stably transfected with human GPR119. Particulars: Min-6/hGPR119 cells, 45 minutes incubation at room temperature. The class given is cell-based. Here is the method: The compounds of formula I according to the invention modulate the activity of the G-protein-coupled receptor GPR119. The effect of the compounds on the activation of GPR119 and on the stimulation of intracellular cAMP concentration is determined using the AlphaScreen cAMP Assay Kit (Cat.No.#6760625R) made by PerkinElmer.
MIN6 cells [Miyazaki J et al. Endocrinology. 1990 July; 127(1):126-32] are stably transfected with an expression vector for human GPR119 cDNA (Acc. No. NP_848566). Min-6/hGPR119 cells are cultured in DMEM, 10% FBS, 50 μM β-mercaptoethanol, 0.3 mg/mL Geniticin, 2 mM GlutaMAX at 37° C. 5% CO2. For the assay, the cells are seeded in Optiplates (white, 384-well, 160W-barcoded, TC, sterile with lid, Cat.No.#6007688 (Perkin Elmer); 10000 cells/well; 50 μl). The plates covered with lids are then incubated for 24 hours at 37° C./5% CO2. After the medium is aspirated from the wells completely, 10 μl of the test compound are added, the compounds are diluted using stimulating buffer (140 mM NaCl, 3.6 mM KCl, 0.5 mM NaH2PO4, 0.5 mM MgSO4, 1.5 mM CaCl2, 10 mM Hepes, 5 mM NaHCO3; pH 7.4. 0.5 mM IBMX and 0.1% BSA, the final DMSO concentration is 1%). After 45 minutes incubation at room temperature (approx. 20° C.), the cAMP concentrations are determined using the AlphaScreen cAMP Assay Kit (Cat.No.#6760625R from PerkinElmer).
(In general: In Alpha technology, singlet oxygen from a donor bead excites a nearby acceptor bead.)
What is called EC50 is the concentration giving half of the maximal effect. Read a high EC50 as lower potency in that assay. `CS(=O)(=O)c1ccc(-c2ncc(C(=O)N(C3CC3)C3CCN(c4noc(C5CC5)n4)CC3)cn2)cc1` [Example 20, 2-(4-Methanesulfonyl-phenyl)-pyrimidine-5-carboxylic acid cyclopropyl-[1-(5-cyclopropyl-[1,2,4]oxadiazol-3-yl)-piperidin-4-yl]-amide] had an EC50 of 92 nM.
In the case of `CCCc1noc(N2CCC(N(C(=O)c3cnc(-n4ccnc4)nc3)C3CC3)CC2)n1` [Example 21, 2-Imidazol-1-yl-pyrimidine-5-carboxylic acid cyclopropyl-[1-(3-propyl-[1,2,4]oxadiazol-5-yl)-piperidin-4-yl]-amide] it was 123 nM.
With `CCCc1noc(N2CCC(N(C(=O)c3cnc(-n4ccnc4C)nc3)C3CC3)CC2)n1` [Example 22, 2-(2-Methyl-imidazol-1-yl)-pyrimidine-5-carboxylic acid cyclopropyl-[1-(3-propyl-[1,2,4]oxadiazol-5-yl)-piperidin-4-yl]-amide] the figure was 137 nM; with `CCCc1noc(N2CCC(N(C(=O)c3cnc(-n4ccnc4CC)nc3)C3CC3)CC2)n1` [Example 23, 2-(2-Ethyl-imidazol-1-yl)-pyrimidine-5-carboxylic acid cyclopropyl-[1-(3-propyl-[1,2,4]oxadiazol-5-yl)-piperidin-4-yl]-amide], 103 nM; with `Cc1nccn1-c1ncc(C(=O)N(C2CC2)C2CCN(c3noc(C4CC4)n3)CC2)cn1` [Example 24, 2-(2-Methyl-imidazol-1-yl)-pyrimidine-5-carboxylic acid cyclopropyl-[1-(5-cyclopropyl-[1,2,4]oxadiazol-3-yl)-piperidin-4-yl]-amide], 83 nM.
In the case of `O=C(c1cnc(-n2ccnc2)nc1)N(C1CC1)C1CCN(c2noc(C3CC3)n2)CC1` [Example 25, 2-Imidazol-1-yl-pyrimidine-5-carboxylic acid cyclopropyl-[1-(5-cyclopropyl-[1,2,4]oxadiazol-3-yl)-piperidin-4-yl]-amide] it was 103 nM.
As to `CCc1nccn1-c1ncc(C(=O)N(C2CC2)C2CCN(c3noc(C4CC4)n3)CC2)cn1` [Example 26, 2-(2-Ethyl-imidazol-1-yl)-pyrimidine-5-carboxylic acid cyclopropyl-[1-(5-cyclopropyl-[1,2,4]oxadiazol-3-yl)-piperidin-4-yl]-amide], the EC50 was 156 nM.
As for `Cc1nccn1-c1ncc(C(=O)N(C2CC2)C2CCN(c3ncc(C(F)(F)F)cc3F)CC2)cn1` [Example 27, 2-(2-Methyl-imidazol-1-yl)-pyrimidine-5-carboxylic acid cyclopropyl-(3′-fluoro-5′-trifluoromethyl-3,4,5,6-tetrahydro-2H-[1,2′]bipyridinyl-4-yl)-amide], the midpoint of the response, the EC50, lay at 6 nM.
Compound `CC(C)c1noc(N2CCC(N(C(=O)c3cc(-c4ccc(C#N)cc4F)no3)C3CC3)CC2)n1` [Example 28, 3-(4-Cyano-2-fluoro-phenyl)-isoxazole-5-carboxylic acid cyclopropyl-[1-(3-isopropyl-[1,2,4]oxadiazol-5-yl)-piperidin-4-yl]-amide] showed an EC50 of 3 nM.
In turn, `CC(C)c1noc(N2CCC(N(C(=O)c3cc(-c4ccc(C#N)cc4F)on3)C3CC3)CC2)n1` [Example 29, 5-(4-Cyano-2-fluoro-phenyl)-isoxazole-3-carboxylic acid cyclopropyl-[1-(3-isopropyl-[1,2,4]oxadiazol-5-yl)-piperidin-4-yl]-amide] showed an EC50 of 3 nM.
With `CC(C)(C)c1noc(N2CCC(N(C(=O)c3cc(-c4ccc(C#N)cc4F)on3)C3CC3)CC2)n1` [Example 30, 5-(4-Cyano-2-fluoro-phenyl)-isoxazole-3-carboxylic acid [1-(3-tert-butyl-[1,2,4]oxadiazol-5-yl)-piperidin-4-yl]-cyclopropyl-amide] the figure was 5 nM; with `CC(C)(C)c1noc(N2CCC(N(C(=O)c3cc(-c4ccc(C#N)cc4F)no3)C3CC3)CC2)n1` [Example 31, 3-(4-Cyano-2-fluoro-phenyl)-isoxazole-5-carboxylic acid [1-(3-tert-butyl-[1,2,4]oxadiazol-5-yl)-piperidin-4-yl]-cyclopropyl-amide], 6 nM.
Take `CC(C)(C)c1noc(N2CCC(N(C(=O)c3cnc(-c4cnco4)cn3)C3CC3)CC2)n1` [Example 32, 5-Oxazol-5-yl-pyrazine-2-carboxylic acid [1-(3-tert-butyl-[1,2,4]oxadiazol-5-yl)-piperidin-4-yl]-cyclopropyl-amide]: the EC50 came to 14 nM.
With `CC(C)c1noc(N2CCC(N(C(=O)c3cnc(-c4cnco4)cn3)C3CC3)CC2)n1` [Example 33, 5-Oxazol-5-yl-pyrazine-2-carboxylic acid cyclopropyl-[1-(3-isopropyl-[1,2,4]oxadiazol-5-yl)-piperidin-4-yl]amide] the figure was 25 nM; with `CCc1cnc(N2CCC(N(C(=O)c3ccc(-c4cnco4)nc3)C3CC3)CC2)nc1` [Example 34, N-Cyclopropyl-N-[1-(5-ethyl-pyrimidin-2-yl)-piperidin-4-yl]-6-oxazol-5-yl-nicotinamide], 27 nM.
With `CC(C)c1noc(N2CCC(N(C(=O)c3ccc(-c4cnco4)nc3)C3CC3)CC2)n1` [Example 35, N-Cyclopropyl-N-[1-(3-isopropyl-[1,2,4]oxadiazol-5-yl)-piperidin-4-yl]-6-oxazol-5-yl-nicotinamide] the figure was 33 nM.
The compound `CC(C)(C)c1noc(N2CCC(N(C(=O)c3ccc(-c4cnco4)nc3)C3CC3)CC2)n1` [Example 36, N-[1-(3-tert-Butyl-[1,2,4]oxadiazol-5-yl)-piperidin-4-yl]-N-cyclopropyl-6-oxazol-5-yl-nicotinamide] registered an EC50 of 46 nM.
With `CCc1cnc(N2CCC(N(C(=O)c3ccc(-c4cnco4)nc3)C3CC3)CC2)cn1` [Example 37, N-Cyclopropyl-N-[1-(5-ethyl-pyrazin-2-yl)-piperidin-4-yl]-6-oxazol-5-yl-nicotinamide] the figure was 59 nM; with `CCc1cnc(N2CCC(N(C(=O)c3cnc(-c4cnco4)cn3)C3CC3)CC2)nc1` [Example 38, 5-Oxazol-5-yl-pyrazine-2-carboxylic acid cyclopropyl-[1-(5-ethyl-pyrimidin-2-yl)-piperidin-4-yl]-amide], 63 nM.
In the case of `CCCc1noc(N2CCC(N(C(=O)c3cnc(-c4cnco4)cn3)C3CC3)CC2)n1` [Example 39, 5-Oxazol-5-yl-pyrazine-2-carboxylic acid cyclopropyl-[1-(3-propyl-[1,2,4]oxadiazol-5-yl)-piperidin-4-yl]-amide] it was 67 nM; in that of `CCCc1noc(N2CCC(N(C(=O)c3ccc(-c4cnco4)nc3)C3CC3)CC2)n1` [Example 40, N-Cyclopropyl-6-oxazol-5-yl-N-[1-(3-propyl-[1,2,4]oxadiazol-5-yl)-piperidin-4-yl]-nicotinamide], 89 nM; in that of `Cc1cnc(N2CCC(N(C(=O)c3ccc(-c4cnco4)nc3)C3CC3)CC2)nc1` [Example 41, N-Cyclopropyl-N-[1-(5-methyl-pyrimidin-2-yl)-piperidin-4-yl]-6-oxazol-5-yl-nicotinamide], 159 nM.
With `Cc1cnc(N2CCC(N(C(=O)c3ccc(-c4cnco4)nc3)C3CC3)CC2)cn1` [Example 42, N-Cyclopropyl-N-[1-(5-methyl-pyrazin-2-yl)-piperidin-4-yl]-6-oxazol-5-yl-nicotinamide] the figure was 231 nM.

The record behind these values is patent publication US8921398B2 (Boehringer Ingelheim International GmbH, priority 2011, dated 2014).
